Measurements as given in patent US20120263732A1, “CD40 ANTIBODY FORMULATION AND METHODS” (PFIZER INC., priority 2003, published 2012).

Experiments:
B cell lymphoma Daudi = assay: Mortality in systemic Daudi B cell lymphoma model; format: in vivo, human tumor in SCID-beige mice; conditions: Daudi IV; single IP injection; monitored for 58 days
Protocol: The ability of an anti-CD40 antibody according to the invention (21.4.1) to delay mortality in a CD40(+) systemic tumor model using a B cell lymphoma was assessed.
SCID-beige mice were injected IV with the B cell lymphoma Daudi (ATCC CCL-213). 21.4.1 was administered as a single injection (IP) at the time of tumor injection. Mortality was monitored for 58 days.

[1] = tested on: CD40(+) Raji B cell lymphoma; assay: CD40(+) Raji B cell lymphoma growth in SCID-beige mice; format: in vivo, human tumor in SCID-beige mice
Protocol: SCID-beige mice were injected subcutaneously with the CD40(+) Raji B cell lymphoma (ATCC CCL-86) (SC) followed by a single dose of 21.4.1 (IP) at the time of tumor injection. Some animals were also injected with human T cells and DC. Tumor growth was assessed on Day 21.

[2] = tested on: CD40(−) colon carcinoma, Lovo; assay: CD40(−) Lovo colon carcinoma growth in SCID-beige mice; format: in vivo, human tumor in SCID-beige mice; conditions: immune cells present; compared with K562 results
Protocol: (§1) The effects of a CD40 antibody (21.4.1) on the growth of CD40(−) tumors (e.g., erythroleukemia and colon carcinoma) were examined. In particular, K562 tumors were chosen to assess the efficacy of 21.4.1 against a CD40(−) low immunogenic (class I and II negative) tumor.
(§2) SCID-beige mice were injected SC with the CD40(−) erythroleukemic tumor, K562 (ATCC CCL-243) alone or in the presence of human peripheral blood T cells and DCs. Animals received a single IP injection of 21.4.1 either at the time of tumor injection or 5 days later using various dose levels.
The amount of 21.4.1 to cause a 50% inhibition of tumor growth was 0.005 mg/kg corresponding to a Cmax serum concentration of 0.05 μg/mL. […] The results were identical when 21.4.1 was administered on Day 0 or Day +5 relative to tumor challenge. The growth of these CD40(−) tumors was not inhibited by 21.4.1 in the absence of immune cells.

[3] = tested on: human breast tumor, BT 474; assay: BT 474 breast tumor growth with human T cells and DC in SCID-beige mice; format: in vivo; conditions: in the presence of immune cells; single injection
Text: SCID-beige mice were challenged with the human breast tumor, BT 474 (ATCC HTB-20), SC, together with human peripheral blood T cells and DC. Animals received a single dose of 21.4.1 (IP) at the time of tumor injection.

breast tumor, BT 474 = assay: Established BT 474 breast tumors: antibody and/or cisplatin; format: in vivo, human tumor in SCID-beige mice; conditions: single IP injection once tumors reached 200 mm^2; antibody 1 mg/kg, cisplatin 2.5 mg/kg; Day 84
Protocol: The therapeutic effects of an anti-CD40 antibody (21.4.1) in preventing the growth of human breast tumors alone and in the presence of cisplatin was examined.
SCID-beige mice were injected SC with the breast tumor, BT 474. The antibody (1 mg/kg, IP) and/or cisplatin (2.5 mg/kg, IP) were administered as a single injection once tumors reached a size of 200 mm^2. Tumor growth was measured on Day 84 after challenge.

[4] = tested on: CD40(−) erythroleukemic tumor, K562; assay: CD40(−) K562 erythroleukemic tumor growth in SCID-beige mice; format: in vivo, human tumor in SCID-beige mice; conditions: K562 with human T cells and DC; single IP injection; Day 21
Protocol: as §1, §2

Molecule	mortality induced by systemically administered tumor cell line (B cell lymphoma Daudi)	anti-tumor activity against CD40(+) tumors when immune cells were present ([1]; Raji)	inhibition of Lovo colon carcinoma growth [2]	growth of BT 474 cells [3]	tumor growth, single agent (breast tumor, BT 474)	amount to cause a 50% inhibition of tumor growth (IC50) [4]	amount to cause a 50% inhibition of tumor growth (IC50) ([1]; Raji in the absence of immune cells, single IP dose, Day 21)
3.1.1: human anti-CD40 antibody; amino acid sequences SEQ ID NOs:1-4; hybridoma deposit PTA-3600	demonstrated	demonstrated	demonstrated	demonstrated	demonstrated	–	–
3.1.1H-A78T-V88A-V97A/3.1.1L-L4M-L83V: 3.1.1 variant with three heavy chain and two light chain substitutions; SEQ ID NOs:9, 2, 10, 4	–	–	–	–	–	< 0.01 mg/kg	< 0.01 mg/kg
N.N.[Cl][Pt][Cl] [cisplatin, cis-diaminedichloroplatinum, reference compound]	–	–	–	–	prevented tumor growth	–	–
